Results from patent US12357553B2, “Composition for treating hair loss or promoting hair growth, comprising piperonylic acid” (HESED BIO CO., LTD., priority 2017, dated 2025).

What was measured:
ERK = ERK activation (phosphorylation) in HaCaT cells, Western blotting; type: cell-based
Description: (§1) It is well known that the activation of extracellular signal-regulated kinase (ERK) and protein kinase B (AKT) are induced by the EGFR activation and transmit signals required for cell growth and survival. Accordingly, as the activation of EGFR by piperonylic acid was verified in Examples 2 and 3, it was determined whether ERK and AKT, the downstream of EGFR, were also activated by piperonylic acid. Specifically, after HaCaT cells were cultured in a serum-free medium, the cells were treated with piperonylic acid at 0, 25, and 100 μM, and then ERK and AKT, which were activated when phsphorylated, were analyzed by Western blotting method. As antibodies, phosphor-site specific antibodies which are labeling factors of activated ERK and AKT and antibodies that measure total ERK and AKT were used, and GAPDH expressed from a housekeeping gene was measured in order to correct the amount of total proteins between lanes.
(§2) Subsequently, in order to confirm the pattern of ERK and AKT activities by piperonylic acid treatment over time, HaCaT cells cultured in a serum-free medium were treated with piperonylic acid, and then the activity pattern over time was analyzed.
(§3) In order to verify that the activation of ERK and AKT by piperonylic acid were induced by EGFR, the activity of EGFR was suppressed by treating cells with tyrphostin AG1478 which is an EGFR antagonist, and then the activities of ERK and AKT by piperonylic acid were analyzed.

AKT = AKT activation (phosphorylation) in HaCaT cells, Western blotting; type: cell-based
Description: as §1, §2, §3

[1] = system: c-myc, c-jun, c-fos, and egr-1 genes; assay: Change in gene expression in HaCaT cells (real-time quantitative PCR, Western blotting); type: cell-based
Excerpt: Signaling by EGFR induces gene expression that is important for cell growth and survival via important signaling mediator proteins which are ERK and AKT. It is well known that c-myc, c-jun, c-fos, and egr-1 genes are genes which are regulated by EGFR and promote cell growth and survival. […] Specifically, a Tri-reagent was used for mRNA extraction, cDNA was made by a reverse transcription polymerase chain reaction (RT-PCR) using a poly-A primer and a reverse transcriptase, and the amount of each mRNA was measured using real-time quantitative PCR. The amount of each mRNA was corrected with the amount of β-actin which is a housekeeping gene.

EGFR [2] = biological target: T1, EGFR (Homo sapiens, UniProt P00533); assay: EGFP-SH2 biosensor system measuring EGFR activation (internalization) in A549 cells; type: cell-based; settings: 100 μM, compared to DMSO control
Description: Using these characteristics, a biosensor system was manufactured such that EGFR internalization by the EGFR activation could be measured by a fluorescent protein. Specifically, an EGFP-SH2 vector was manufactured by removing only the SH2 domain of Grb2 and inserted it in an enhanced green fluorescent protein (EGFP) vector using recombinant DNA technology, and then introduced it into A549 cells for expression.
After being cultured in a serum-free medium for 24 hours, the cells were treated with piperonylic acid.

HaCaT cells [3] = assay: Cytotoxicity by MTT in HaCaT keratinocytes; type: cell-based
Description: The cytotoxicity of piperonylic acid was measured using HaCaT cells which are keratinocytes. When cells are treated with a yellow water-soluble substrate MTT tetrazolium, the substrate is reduced to MTT formazan by mitochondrial enzymes and the color changes to blue-violet. Since the more living cells there are, the darker the blue-violet color appears, the blue-violet absorbance at 540 nm reflects the concentration of living cells. Specifically, after cells were cultured fully in each well of a 96-well plate, cells were treated with piperonylic acid at a concentration of 0, 25, 50, 100, 250, and 500 μM and cultured at 37° C. in a 5% CO2 incubator for 24 hours and 48 hours, and then the viability of cells was measured by an MTT reagent. A control (0 μM) that had not been treated with piperonylic acid was treated with an equal amount of solvent, DMSO.

HaCaT cells [4] = assay: Growth promotion of keratinocytes by CCK-8 assay; type: cell-based; settings: 50 μM and 100 μM, 24 hours, serum-free, compared to the negative control
Description: Cell counting kit-8 (CCK-8) is a water-soluble tetrazolium salt reagent called WST-8, and forms orange water-soluble formazan by a dehydrogenase in the mitochondria of living cells. The absorbance of the orange wavelength at 450 nm as indicated by CCK-8 reflects the number of cells, and thus has been used to measure cell growth and proliferation. The growth promotion efficacy of keratinocytes, HaCaT cells, was measured by CCK-8 assay using non-cytotoxic piperonylic acid at a concentration of 50 μM and 100 μM. Specifically, after 1×10^4 HaCaT cells were cultured on a 96-well plate for 24 hours, growth factors in the medium were removed by exchanging the medium with a serum-free medium, and then the cells were treated with piperonylic acid. […] After the cells were cultured for 24 hours, the cell growth was analyzed by treating the cells with CCK8 and measuring the absorbance at 450 nm.

HaCaT cells [5] = assay: Wound healing assay in keratinocytes; type: cell-based; settings: 50 μM and 100 μM, culturing for 3 days, vs negative control
Description: Further, the cell growth promotion efficacy by piperonylic acid was confirmed through a wound healing assay. Specifically, after HaCaT cells were cultured fully on a 12-well plate, a wound area was formed using a yellow tip, and the cells were treated with piperonylic acid at 50 μM and 100 μM after exchanging the medium with a serum-free medium.

HaCaT cells [6] = assay: Resistance to UVB-induced cell damage, cell viability by CCK-8; type: cell-based; settings: UVB at 25 mJ/cm^2, 100 μM; negative control 84%
Description: Among the ultraviolet wavelengths, the UVB wavelength corresponding to 280 to 315 nm penetrates the epidermal layer where many keratinocytes are present to cause cell damage. […] The solvent DMSO was used as a negative control, and cell viability was measured using the CCK-8 method used in Example 7.

[7] = system: dermal papilla cells related to androgenic alopecia; assay: Proliferation of dermal papilla cells related to androgenic alopecia by MTT; type: cell-based, human; settings: 50 μM, 24 hours, serum-free, vs DMSO
Excerpt: The dermal papilla cells related to androgenic alopecia used in the experiment were a cell line that was immortalized by inserting hTERT and SV40-Tag into dermal papilla cells (DPCs, passage 1) derived from male androgenic alopecia patients, and purchased from Epibiotech Co., Ltd. and used. The proliferation of dermal papilla cells was confirmed using MTT tetrazolium. MTT tetrazolium is reduced to MTT formazan by intracellular mitochondrial enzymes, and at this time, the yellow color turns blue violet. The more cells there are, the stronger the reduction, so a stronger blue violet color appears, and the concentration of living cells is measured by measuring the absorbance of the blue violet color at 540 nm. Specifically, 1×10^4 cells are aliquoted into 96-well cell culture plates and cultured for 24 hours. Thereafter, a serum-free medium was treated with 50 μM piperonylic acid, and then cultured for 24 hours. Then, after the cells were treated with the MTT reagent for 2 hours, cell growth was analyzed by adding DMSO thereto and confirming the color development at […]. A solvent DMSO was used as a negative control.

cyclin D = assay: Cyclin D protein level in dermal papilla cells, western blotting; type: cell-based, human; settings: 25 and 50 μM, 24 hours, compared to the control
Description: In addition, in order to investigate a gene expression pattern involved in the proliferation of dermal papilla cells related to androgenic alopecia, the human dermal papilla cells were cultured in a serum-free medium for 24 hours, and then treated with 25 and 50 μM piperonylic acid, respectively. The cells were treated with a drug, and after 24 hours, the levels of cyclin D were analyzed by the western blotting method. As an antibody, GAPDH, which is always expressed constantly, was used to correct the total protein amount between the cyclin D antibody and each lane. A solvent DMSO was used as a negative control.

[8] = system: dermal papilla cells related to androgenic alopecia; assay: Scratch (yellow tip) proliferation assay in dermal papilla cells related to androgenic alopecia; type: cell-based, human; settings: 100 μM, 24 hours and 48 hours, serum-free, vs DMSO
Excerpt: Meanwhile, in order to investigate the proliferation pattern of dermal papilla cells related to androgenic alopecia during treatment with piperonylic acid, a 12-well cell culture plate was fully filled with the dermal papilla cells, and the cells were injured using a yellow tip. […] A solvent DMSO was used as a negative control.

EGFR [9] = biological target: T1, EGFR; assay: Pull-down of EGFR from HaCaT cell lysate with piperonylic acid-conjugated Sepharose 4B bead, Western blotting; type: binding; parameters: endogenous in cells; host or cells: HaCaT cells; settings: 100 μM of free piperonylic acid added with the cell lysate
Description: In order to investigate the mechanism of EGFR activation by piperonylic acid confirmed in Example 2, it was confirmed in the present example whether piperonylic acid could interact with EGFR. For this purpose, piperonylic acid-4B bead was manufactured by conjugating piperonylic acid to a Cyanogen bromide-activated-Sepharose 4B bead purchased from Sigma-Aldrich. Equal amounts of HaCaT cell lysates were incubated with piperonylic acid-4B bead and control-4B used as the control, and proteins bound to the bead were analyzed by the Western blotting method. An anti-EGFR antibody was used in order to measure EGFR among the precipitated proteins, and anti-Actin and anti-GAPDH antibodies against actin and GAPDH proteins present in large amounts as housekeeping genes were used in order to support that the binding to piperonylic acid was selective.

EGFR [10] = biological target: T1, EGFR; assay: Tyrosine phosphorylation of EGFR in HaCaT cells (immunoprecipitation, Western blotting); type: cell-based; parameters: endogenous in cells; host or cells: HaCaT cells; settings: 100 μM for 10 minutes, compared to DMSO
Description: In order to confirm whether the binding of piperonylic acid with EGFR directly induces the EGFR activation, HaCaT cells cultured in a serum-free medium were treated with piperonylic acid at a concentration of 100 μM for 10 minutes, and then the activation was measured through an increasing tyrosine phosphorylation of EGFR. Specifically, after only EGFR was precipitated from 500 μg of cell lysate by immunoprecipitation using anti-EGFR antibody and protein-G agarose beads, the level of tyrosine phosphorylation was analyzed by Western blotting method.

[11] = AG1478 at 200 nM for 10 minutes, then piperonylic acid
[12] = 100 μM, 10 minutes, compared to the control
[13] = piperonylic acid treatment, serum-free medium

T1 sequence (P00533 25-1210): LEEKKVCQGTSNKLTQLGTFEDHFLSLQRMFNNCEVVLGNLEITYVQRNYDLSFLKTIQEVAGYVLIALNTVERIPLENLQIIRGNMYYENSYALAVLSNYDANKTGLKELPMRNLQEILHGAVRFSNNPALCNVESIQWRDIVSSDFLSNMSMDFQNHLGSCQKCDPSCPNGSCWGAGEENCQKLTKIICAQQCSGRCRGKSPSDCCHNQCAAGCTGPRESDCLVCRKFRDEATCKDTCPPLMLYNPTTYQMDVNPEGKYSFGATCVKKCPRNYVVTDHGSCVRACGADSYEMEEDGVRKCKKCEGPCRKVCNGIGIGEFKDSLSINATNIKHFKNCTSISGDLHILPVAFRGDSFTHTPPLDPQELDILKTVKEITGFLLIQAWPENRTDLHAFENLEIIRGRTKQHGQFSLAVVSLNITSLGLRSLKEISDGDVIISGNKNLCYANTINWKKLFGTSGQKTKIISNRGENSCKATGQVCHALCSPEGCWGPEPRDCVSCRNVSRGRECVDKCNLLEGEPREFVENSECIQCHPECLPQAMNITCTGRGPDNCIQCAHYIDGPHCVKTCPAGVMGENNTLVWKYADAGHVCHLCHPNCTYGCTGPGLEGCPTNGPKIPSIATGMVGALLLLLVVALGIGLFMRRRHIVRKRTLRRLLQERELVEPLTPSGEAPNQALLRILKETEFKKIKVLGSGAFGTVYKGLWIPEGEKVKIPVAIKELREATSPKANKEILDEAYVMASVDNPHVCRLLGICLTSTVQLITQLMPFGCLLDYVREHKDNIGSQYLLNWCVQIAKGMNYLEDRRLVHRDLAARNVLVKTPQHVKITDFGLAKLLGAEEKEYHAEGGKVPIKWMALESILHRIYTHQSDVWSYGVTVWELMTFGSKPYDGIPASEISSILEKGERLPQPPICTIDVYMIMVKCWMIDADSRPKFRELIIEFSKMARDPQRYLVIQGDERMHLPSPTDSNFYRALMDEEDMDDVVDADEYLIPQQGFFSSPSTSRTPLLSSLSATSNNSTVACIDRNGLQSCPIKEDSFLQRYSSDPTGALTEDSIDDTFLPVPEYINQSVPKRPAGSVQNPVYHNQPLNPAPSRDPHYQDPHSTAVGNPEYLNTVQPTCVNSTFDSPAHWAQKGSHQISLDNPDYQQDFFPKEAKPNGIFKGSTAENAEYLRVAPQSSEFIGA

Question: How did the “ERK activation by piperonylic acid after EGFR antagonist” value (ERK; [11]) turn out when `COc1cc2ncnc(Nc3cccc(Cl)c3)c2cc1OC` [AG1478, tyrphostin AG1478, reference compound] was run?
Answer: not activated

Question: What about the “AKT activation by piperonylic acid after EGFR antagonist” value (AKT; [11]) of the same molecule?
Answer: not activated

Question: What about the “gene expression of c-fos and egr-1 increased by piperonylic acid” value ([1]; AG1478 pre-treatment, piperonylic acid at 100 μM, 2 hours) of the same molecule?
Answer: completely suppressed

Question: For `O=C(O)c1ccc2c(c1)OCO2` [piperonylic acid], which “EGFR activation in biosensor system (change in fluorescence signal)” value (EGFR [2]) is on record?
Answer: EGFR was activated

Question: And the cytotoxicity to keratinocytes (HaCaT cells [3]; 0-500 μM, 24 and 48 hours)?
Answer: very low

Question: What about the “difference in cell viability from control” value (HaCaT cells [3]; 500 μM for 48 hours) of the same molecule?
Answer: about 10%

Question: And the ERK activation (ERK; [12])?
Answer: 3.3 fold

Question: And the “pattern of ERK activity over time” value (ERK; [13])?
Answer: rapidly induced for 5 to 10 minutes

Question: And the AKT activation (AKT; [12])?
Answer: 2.1 fold

Question: What about the “pattern of AKT activity over time” value (AKT; [13]) of the same molecule?
Answer: rapidly induced for 5 to 10 minutes

Question: And the “expression of Egr-1 and c-Fos proteins” value ([1]; 100 μM)?
Answer: increase in expression

Question: And the “mRNA expression of c-jun” value ([1]; 100 μM, 0, 1, 2, and 6 hours)?
Answer: increasing tendency

Question: What about the “cell growth and proliferation (CCK-8)” value (HaCaT cells [4]) of the same molecule?
Answer: significantly increased

Question: And the “filling of wound area” value (HaCaT cells [5])?
Answer: more rapidly filled

Question: What about the “cells survived after UVB” value (HaCaT cells [6]) of the same molecule?
Answer: 89%

Question: And the “cell proliferation of dermal papilla cells (MTT)” value [7]?
Answer: promoted cell proliferation

Question: And the “expression of cyclin D protein” value (cyclin D)?
Answer: significantly increased

Question: What about the “cell proliferation of dermal papilla cells (scratch)” value [8] of the same molecule?
Answer: promoted cell proliferation

Question: What about the “amount of EGFR bound to bead under competition” value (EGFR [9]) of the same molecule?
Answer: the amount of EGFR bound thereto was reduced

Question: And the “tyrosine phosphorylation of EGFR” value (EGFR [10])?
Answer: 1.8 fold
